Read-outs that look alike come from different tables or passages of the source.
What was measured:
[1] = system: Tourette's Disease Tics, Violence, and ADHD; assay: Case history 8, Sibutramine Patient No. 47; type: in vivo, human
[2] = system: Sexual Function, ADD, and Rage Outbursts; assay: Case history 3, Sibutramine Patient No. 100; type: in vivo, human
[3] = system: Tourette's Tics, Asocial Behavior, and Relief of Hyposexuality; details: for response to other medications: before sibutramine
[4] = system: frontal lobe executive function, ADHD, and hyposexuality; details: human, in vivo
[5] = system: Sexual Function and ADD; assay: Case history 4, Sibutramine Patient No. 109; type: in vivo, human; details: before sibutramine
[6] = system: Non-Tourette's tics, obsessive-compulsive rituals, and attention deficit hyperactive disorder (ADHD); details: before sibutramine
[7] = system: Asocial Behavior, Violence, and Hyposexuality; assay: Case history 10, Sibutramine Patient No. 54; type: in vivo, human; details: before sibutramine
[8] = system: Severe Atypical Psychosis; assay: Case history 1, Sibutramine Patient No. 97; type: in vivo, human
[9] = system: Reflex Sympathetic Dystrophy Syndrome (RSDS); Complex Regional Pain Syndrome (CRPS); assay: Case history 27; type: in vivo, human
[10] = system: Fibromyalgia—Chronic Fatigue Syndrome; details: before sibutramine
[11] = system: Severe Post-Traumatic Stress Reaction
Experimental: Finally, this patient was taken off of fluoxetine 20 mg when sibutramine treatment was initiated.

[12] = system: Sexual Gender Choice Change; assay: Case history 7, Sibutramine Patient No. 99; type: in vivo, human
[13] = over six years before sibutramine
[14] = mood swings, cognitive, anger, sexual problems, before sibutramine
[15] = depression, impulsive behaviors, mood swings, epileptic symptoms

**Q.** With `C#CCN(C)[C@H](C)Cc1ccccc1` [selegiline] as the compound, how does the “response to other medications” value [1, 13] read?
**A.** Its value is “without any good results”.

**Q.** What about the “response to other medications” value [2, 14] of the same compound?
**A.** Its value is “not helpful”.

**Q.** What about the “response to other medications” value [3] of the same compound?
**A.** The value was “without success”.

**Q.** And the “response to other medications” value [4]?
**A.** The value was “unsuccessful”.

**Q.** With `Nc1nnc(-c2cccc(Cl)c2Cl)c(N)n1` [lamotrigine] as the compound, how does the “response to other medications” value [1, 13] read?
**A.** The value was “without any good results”.

**Q.** And the “response to other medications” value [2, 14]?
**A.** The value was “not helpful”.

**Q.** And the “response to other medications” value [3]?
**A.** Its value is “without success”.

**Q.** What about the “response to other medications” value [5] of the same compound?
**A.** Its value is “unsuccessful”.

**Q.** And the “response to other medications” value [4]?
**A.** Its value is “unsuccessful”.

**Q.** What about the “response to other medications” value [6] of the same compound?
**A.** The value was “without success”.

**Q.** Which results are given for `Nc1c2c(nc3ccccc13)CCCC2` [tacrine]?
**A.** response to other medications [1, 13]: without any good results; response to other medications [3]: without success

**Q.** How did the “response to other medications” value [7] turn out when `CSc1ccc2c(c1)N(CCC1CCCCN1C)c1ccccc1S2` (centres unmarked) [thioridazine] was run?
**A.** Its value is “without any changes in their speech or mode of communication”.

**Q.** `COC(=O)[C@@H]1[C@H]2C[C@H]3c4[nH]c5ccccc5c4CCN3C[C@@H]2CC[C@@H]1O` [yohimbine] was tested. Which “response to other medications” value [5] did it give?
**A.** The value was “unsuccessful”.

**Q.** Which results are given for `CC(C)NCC(O)COc1cccc2ccccc12` (centres unmarked) [propranolol]?
**A.** response to other medications [1, 13]: without any good results; response to other medications [5]: unsuccessful; response to other medications [7]: without any changes in their speech or mode of communication

**Q.** `OCCOCCN1CCN(C(c2ccccc2)c2ccc(Cl)cc2)CC1` (centres unmarked) [hydroxyzine] was tested. Which “response to other medications” value [1, 13] did it give?
**A.** The value was “without any good results”.

**Q.** For `N[C@@H](Cc1cc(I)c(Oc2cc(I)c(O)c(I)c2)c(I)c1)C(=O)O` [thyroxine], which “response to other medications” value [2, 14] is on record?
**A.** The value was “not helpful”.

**Q.** With `CN1CCN(CCCN2c3ccccc3Sc3ccc(C(F)(F)F)cc32)CC1` [trifluoperazine] as the compound, how does the “response of psychosis symptoms to other medications” value (from here on “response of psychosis symptoms”) ([8]; treatments before sibutramine) read?
**A.** Its value is “without success”.

**Q.** Which “response to other treatments” value ([9]; before sibutramine) does the source give for `CN(C)CCC=C1c2ccccc2CCc2ccccc21` [Elavil] here?
**A.** Its value is “helped their sleep and slightly increased their appetite but did not affect the pain”.

**Q.** With `CCCN(CCC)CCc1cccc2c1CC(=O)N2` [ropinirole] as the compound, how does the “response to other medications” value [6] read?
**A.** Its value is “unsuccessful”.

**Q.** With `CC(N)Cc1ccccc1` (centres unmarked) [amphetamine] as the compound, how does the “response to other medications” value [6] read?
**A.** The value was “helped their hyperactivity and OCD symptoms in part”.

**Q.** With `OCCN1CCN(CCCN2c3ccccc3Sc3ccc(C(F)(F)F)cc32)CC1` [fluphenazine] as the compound, how does the “response to other medications” value [3] read?
**A.** The value was “without success”.

**Q.** How did the “response to other medications” value [10] turn out when `O=C(O)CCc1nc(-c2ccccc2)c(-c2ccccc2)o1` [oxaprozin] was run?
**A.** The value was “unsuccessfully”.

**Q.** What does the source list for `CCNC(C)Cc1cccc(C(F)(F)F)c1` (centres unmarked) [fenfluramine]?
**A.** response to other medications [1, 13]: without any good results; response to other medications [2, 14]: not helpful; response to other medications [3]: without success; response of PTSD symptoms to other medications ([11]; before sibutramine): unsuccessful; response to other medications [7]: without any changes in their speech or mode of communication

**Q.** `CN[C@H]1CC[C@@H](c2ccc(Cl)c(Cl)c2)c2ccccc21` [sertraline] was tested. Which “response to other medications” value [12, 15] did it give?
**A.** Its value is “refractory”.

**Q.** For `NC(=O)N1c2ccccc2CC(=O)c2ccccc21` [oxcarbazepine], which “response of PTSD symptoms to other medications” value (“response of PTSD symptoms” for short) ([11]; before sibutramine) is on record?
**A.** The value was “unsuccessful”.

**Q.** Which “response of psychosis symptoms” value ([8]; treatments before sibutramine) does the source give for `Fc1ccc([C@@H]2CCNC[C@H]2COc2ccc3c(c2)OCO3)cc1` [paroxetine] here?
**A.** The value was “without success”.

**Q.** For `COCCCC/C(=N\OCCN)c1ccc(C(F)(F)F)cc1` [fluvoxamine], which “response to other medications” value [3] is on record?
**A.** The value was “without success”.

**Q.** What about the “response to other medications” value [6] of the same compound?
**A.** Its value is “helped their hyperactivity and OCD symptoms in part”.

**Q.** What does the source list for `CN(C)CCCN1c2ccccc2CCc2ccccc21` [imipramine]?
**A.** response to other medications [2, 14]: unsuccessful; response to other medications [12, 15]: refractory

**Q.** `NC(=O)OCC(COC(N)=O)c1ccccc1` [felbamate] was tested. Which “response to other medications” value [1, 13] did it give?
**A.** Its value is “without any good results”.

**Q.** And the “response to other medications” value [3]?
**A.** The value was “without success”.

**Q.** With `O=C1CC2(CCCC2)CC(=O)N1CCCCN1CCN(c2ncccn2)CC1` [buspirone] as the compound, how does the “response of PTSD symptoms” value ([11]; human, in vivo) read?
**A.** Its value is “unsuccessful”.

**Q.** What about the “response of psychosis symptoms” value ([8]; treatments before sibutramine) of the same compound?
**A.** The value was “without success”.

**Q.** What does the source list for `O=C1NC(=O)C(c2ccccc2)(c2ccccc2)N1` [phenytoin]?
**A.** response to other medications [1, 13]: without any good results; response of PTSD symptoms to other medications ([11]; before sibutramine): unsuccessful

**Q.** Which “response to other medications” value [2, 14] does the source give for `CCCc1nn(C)c2c(=O)[nH]c(-c3cc(S(=O)(=O)N4CCN(C)CC4)ccc3OCC)nc12` [sildenafil] here?
**A.** The value was “did not help their sexual libido”.

**Q.** And the “response to other medications” value [5]?
**A.** The value was “only increased sexual function but not libido”.

**Q.** What about the “response to other medications” value [4] of the same compound?
**A.** The value was “helped correct the mechanical dysfunction but not the libido”.

**Q.** With `O=C([O-])[O-].[Li+].[Li+]` [lithium carbonate] as the compound, how does the “response to other medications” value ([2]; human, in vivo) read?
**A.** Its value is “unsuccessful and made their obesity worse”.

**Q.** What about the “response to other medications” value ([12]; human, in vivo) of the same compound?
**A.** The value was “refractory”.

**Q.** With `Clc1cccc(Cl)c1N=C1NCCN1` [clonidine] as the compound, how does the “response to other medications” value [1, 13] read?
**A.** Its value is “without any good results”.

**Q.** With `OC(O)C(Cl)(Cl)Cl` [chloral hydrate] as the compound, how does the “response to other medications” value [7] read?
**A.** Its value is “without any changes in their speech or mode of communication”.

**Q.** `CCN[C@@H](C)Cc1cccc(C(F)(F)F)c1` [dextrofenfluramine] was tested. Which “response to other medications” value [3] did it give?
**A.** Its value is “without success”.

**Q.** For `CCN(CC)CC(=O)Nc1c(C)cccc1C` [lidocaine], which “response to other treatments” value ([9]; in vivo) is on record?
**A.** The value was “numbed the area”.

**Q.** Which “response to other medications” value [1, 13] does the source give for `CNCCCN1c2ccccc2CCc2ccccc21` [desipramine] here?
**A.** Its value is “without any good results”.

**Q.** And the “response to other medications” value [2, 14]?
**A.** The value was “not helpful”.

**Q.** How did the “response of PTSD symptoms” value ([11]; before sibutramine) turn out when `NC1=NC(=O)C(c2ccccc2)O1` (centres unmarked) [pemoline] was run?
**A.** The value was “unsuccessful”.

**Q.** With `CC(C)(C)NCC(O)COc1cccc2c1CC(O)C(O)C2` (centres unmarked) [nadolol] as the compound, how does the “response to other medications” value [7] read?
**A.** Its value is “without any changes in their speech or mode of communication”.

**Q.** Which results are given for `Cc1nc2n(c(=O)c1CCN1CCC(c3noc4cc(F)ccc34)CC1)CCCC2` [risperidone]?
**A.** response to other medications ([1]; human, in vivo): without any good results; response of psychosis symptoms to other medications ([8]; human, in vivo): without success

**Q.** With `O=C1Nc2ccc(Cl)cc2C(c2ccccc2Cl)=NC1O` (centres unmarked) [lorazepam] as the compound, how does the “response of psychosis symptoms” value ([8]; treatments before sibutramine) read?
**A.** The value was “without success”.

**Q.** `COc1cccc(C2(O)CCCCC2CN(C)C)c1` (centres unmarked) [tramadol] was tested. Which “response to other medications” value [10] did it give?
**A.** Its value is “unsuccessfully”.

**Q.** `NCC1(CC(=O)O)CCCCC1` [Neurontin] was tested. Which “response to other treatments” value ([9]; before sibutramine) did it give?
**A.** The value was “ineffective”.

**Q.** Which “response to other medications” value ([2]; human, in vivo) does the source give for `CNCCC=C1c2ccccc2CCc2ccccc21` [nortriptyline] here?
**A.** Its value is “unsuccessful”.

**Q.** Which “response of psychosis symptoms” value ([8]; treatments before sibutramine) does the source give for `NC12CC3CC(CC(C3)C1)C2` [amantadine] here?
**A.** The value was “without success”.

**Q.** `COc1cc2c(cc1OC)C(=O)C(CC1CCN(Cc3ccccc3)CC1)C2` (centres unmarked) [donepezil] was tested. Which “response to other medications” value [1, 13] did it give?
**A.** The value was “helped their cognitive problems without aggravating their tics or their outbursts”.

**Q.** What about the “response to other medications” value [2, 14] of the same compound?
**A.** Its value is “not helpful”.

**Q.** What about the “response to other medications” value [3] of the same compound?
**A.** Its value is “without success”.

**Q.** And the “response to other medications” value [4]?
**A.** The value was “unsuccessful”.

**Q.** And the “response to other medications” value [12, 15]?
**A.** Its value is “refractory”.

**Q.** What about the “response to other medications” value [6] of the same compound?
**A.** Its value is “unsuccessful”.

**Q.** With `CC(C)(N)Cc1ccccc1` [phenteramine] as the compound, how does the “response to other medications” value [2, 14] read?
**A.** The value was “helped them lose a small amount of weight but did not affect their other problems”.

**Q.** Which results are given for `OCCOCCN1CCN(C2=Nc3ccccc3Sc3ccccc32)CC1` [quetiapine]?
**A.** response to other medications [1, 13]: without any good results; response of psychosis symptoms to other medications ([8]; treatments before sibutramine): did not control their symptoms; response to other medications [7]: without any changes in their speech or mode of communication

**Q.** With `COc1ccc2cc(CCC(C)=O)ccc2c1` [nabumetone] as the compound, how does the “response to other medications” value [10] read?
**A.** The value was “unsuccessfully”.

**Q.** With `CN1CCN(C2=Nc3cc(Cl)ccc3Nc3ccccc32)CC1` [Clozapine] as the compound, how does the “fall of IQ” value ([3]; human, in vivo) read?
**A.** Its value is 30 points.

**Q.** `CN(C)CCCN1c2ccccc2CCc2ccc(Cl)cc21` [clomipramine] was tested. Which “response to other medications” value [1, 13] did it give?
**A.** The value was “without any good results”.

**Q.** What about the “response to other medications” value [3] of the same compound?
**A.** The value was “without success”.
